Reference: patent publication US20090124636A1, “CHEMICAL COMPOUNDS” (priority 2006, published 2009)

Tested on: HIV-1 fusion
Assay: cells
Type: cell-based
Settings: HIV cell fusion assay; HeLa P4 (CCR5/CD4) and CHO-Tat10 (gp160 JRFL) cells; read-out: IC50
Method: The gp160 induced cell-cell fusion assay uses a HeLa P4 cell line and a CHO-Tat10 cell line.
The HeLa P4 cell line expresses CCR5 and CD4 and has been transfected with HIV-1 LTR-β-Galactosidase. The media for this cell line is Dulbecco modified eagle's medium (D-MEM) (without L-glutamine) containing 10% foetal calf serum (FCS), 2 mM L-glutamine, penicillin/streptomycin (Pen/Strep; 100 U/mL penicillin+[…] streptomycin), and 1 μg/ml puromycin.
The CHO cell line is a Tat (transcriptional trans activator)-expressing clone from a CHO JRR17.1 cell line that has been transfected with pTat puro plasmid. The media for this cell line is rich medium for mammalian cell culture originally developed at Roswell Park Memorial Institute RPMI1640 (without L-glutamine) containing 10% FCS, 2 mM L-glutamine, 0.5 mg/ml Hygromycin B and 12 μg/ml puromycin. The CHO JRR17.1 line expresses gp160 (JRFL) and is a clone that has been selected for its ability to fuse with a CCR5/CD4 expressing cell line.
Upon cell fusion, Tat present in the CHO cell is able to transactivate the HIV-1 long terminal repeat (LTR) present in the HeLa cell leading to the expression of the β-Galactosidase enzyme. This expression is then measured using a Fluor Ace™ β-Galactosidase reporter assay kit (Bio-Rad cat no. 170-3150). This kit is a quantitative fluorescent assay that determines the level of expression of β-galactosidase using 4-methylumbelliferyl-galactopyranoside (MUG) as substrate. β-Galactosidase hydrolyses the fluorogenic substrate resulting in release of the fluorescent molecule 4-methylumbelliferone (4 MU). Fluorescence of 4-methylumbelliferone is then measured on a fluorometer using an excitation wavelength of 360 nm and emission wavelength of 460 nm.

SMILES | IC50
COCC(=O)N(Cc1ccccc1F)[C@@H]1CCN(C2CCN(C(=O)c3c(F)cccc3Cl)CC2)C1 [Example 50] | 77.7 nM
Cc1ncnc(C)c1C(=O)N1CCC(N2CC[C@@H](N(Cc3ccccc3F)C(=O)C3CC(F)(F)C3)C2)CC1 [Example 37] | 62.6 nM
Cc1cccc(C)c1C(=O)N1CCC(C)(N2CC[C@@H](N(C=O)Cc3ccccc3F)C2)CC1 [Example 69] | 123 nM
Cc1ncnc(C)c1C(=O)N1C2CCC1CC(N1CCC(N(Cc3ccccc3)C(=O)C3CC3)C1)C2 (centres unmarked) [Example 71] | 4.27 nM
COCC(=O)N(Cc1cccc(F)c1)[C@@H]1CCN(C2CCN(C(=O)c3c(C)ccnc3C)CC2)C1 [Example 25] | 5.04 nM
Cc1ccccc1C(=O)N1C2CCC1CC(N1CCC(N(Cc3ccccc3)C(=O)C3CC3)C1)C2 (centres unmarked) [Example 72] | 97.3 nM
Cc1onc(-c2ccccc2)c1C(=O)N1CCC(N2CC[C@@H](N(Cc3ccccc3)C(=O)C3CC3)C2)CC1 [Example 41] | 0.41 nM
Cc1cccc(C)c1C(=O)N1CCC(N2CC[C@@H](N(Cc3ccccn3)C(=O)C3CC3)C2)CC1 [Example 16] | 237 nM
Cc1ccc(C(=O)N2CCC(N3CC[C@@H](N(Cc4ccccc4)C(=O)C4CC4)C3)CC2)c(C)c1 [Example 20] | 221 nM
Cc1ccnc(C)c1C(=O)N1CCC(N2CC[C@@H](N(Cc3ccccc3)C(=O)C3CC3)C2)CC1 [Example 21] | 0.82 nM
Cc1onc(C(C)C)c1C(=O)N1CCC(N2CC[C@@H](N(Cc3ccccc3)C(=O)C3CC3)C2)CC1 [Example 42] | 66.3 nM
Cc1ccccc1C(=O)N1CCC(N2CC[C@@H](N(Cc3ccccc3)C(=O)C3CC3)C2)CC1 [Example 17] | 40.8 nM
Cc1cccc(C)c1C(=O)N1CCC(N2CC[C@@H](N(Cc3ccccc3)C(=O)C3CCC3)C2)CC1 [Example 5] | 0.27 nM
Cc1ncnc(C)c1C(=O)N1CCC(N2CC[C@@H](N(Cc3ccccc3)C(=O)C3CC(F)(F)C3)C2)CC1 [Example 34] | 8.51 nM
CCOC(=O)N(Cc1ccccc1)[C@@H]1CCN(C2CCN(C(=O)c3c(C)ncnc3C)CC2)C1 [Example 38] | 135 nM
Cc1cccc(C(=O)N2CCC(N3CC[C@@H](N(Cc4ccccc4)C(=O)CC4CC4)C3)CC2)c1Cl [Example 46] | 107 nM
COc1cc(Cl)ccc1C(=O)N1CCC(N2CC[C@@H](N(Cc3ccccc3)C(=O)C3CC3)C2)CC1 [Example 53] | 104 nM
O=C(c1c(F)cccc1Cl)N1CCC(N2CC[C@@H](N(Cc3ccccc3)C(=O)CC3CC3)C2)CC1 [Example 51] | 100 nM
Cc1ccnc(C)c1C(=O)N1CCC(N2CC[C@@H](N(Cc3cccc(F)c3)C(=O)C3CC(F)(F)C3)C2)CC1 [Example 32] | 34.7 nM
Cc1ccnc(C)c1C(=O)N1CCC(N2CC[C@@H](N(Cc3cccc(F)c3)C(=O)C(C)C)C2)CC1 [Example 33] | 42.2 nM
CC(=O)N(Cc1ccccc1)[C@@H]1CCN(C2CCN(C(=O)c3c(C)cccc3C)CC2)C1 [Example 11] | 3.05 nM
COCC(=O)N(Cc1ccccc1F)[C@@H]1CCN(C2CCN(C(=O)c3c(C)ccnc3C)CC2)C1 [Example 24] | 119 nM
CC(=O)N(Cc1ccccc1F)[C@@H]1CCN(C2CCN(C(=O)c3c(C)cccc3C)CC2)C1 [Example 14] | 13 nM
Cc1cccc(C)c1C(=O)N1CCC(N2CC[C@@H](N(Cc3ccccc3)C(=O)C(C)C)C2)CC1 [Example 8] | 0.63 nM
CC(=O)N(Cc1ccccc1)[C@@H]1CCN(C2CCN(C(=O)c3c(C)ccnc3C)CC2)C1 [Example 29] | 14 nM

SMILES | IC50
Cc1ncnc(C)c1C(=O)N1CCC(C)(N2CC[C@@H](N(Cc3ccccc3)C(=O)C3CC3)C2)CC1 [Example 63] | 8.18 nM
CCc1noc(C)c1C(=O)N1CCC(C)(N2CC[C@@H](N(Cc3ccccc3)C(=O)C3CC3)C2)CC1 [Example 68] | 61.6 nM
Cc1ccnc(C)c1C(=O)N1CCC(N2CC[C@@H](N(Cc3ccccc3)C(=O)C(C)C)C2)CC1 [Example 30] | 18.9 nM
Cc1cccc(C)c1C(=O)N1CCC(N2CC[C@@H](N(Cc3ccccc3)C(=O)c3ccccc3)C2)CC1 [Example 12] | 4.06 nM
Cc1ncnc(C)c1C(=O)N1CCC(N2CC[C@@H](N(Cc3ccccc3)C(=O)OC(C)C)C2)CC1 [Example 36] | 52 nM
Cc1cccc(C)c1C(=O)N1CCC(N2CC[C@@H](N(Cc3ccccc3)C(=O)C3CC3)C2)CC1 [Example 10] | 1.99 nM
COCC(=O)N(Cc1ccccc1)[C@@H]1CCN(C2CCN(C(=O)c3ccccc3C(F)(F)F)CC2)C1 [Example 55] | 48.1 nM
COCC(=O)N(Cc1ccccc1)[C@@H]1CCN(C2CCN(C(=O)c3c(C)cccc3C)CC2)C1 [Example 4] | 0.23 nM
Cc1ncnc(C)c1C(=O)N1CCC(N2CC[C@@H](N(Cc3cccc(F)c3)C(=O)C3CC(F)(F)C3)C2)CC1 [Example 39] | 227 nM
COCC(=O)N(Cc1ccccc1F)[C@@H]1CCN(C2CCN(C(=O)c3c(Cl)cccc3Cl)CC2)C1 [Example 44] | 1.84 nM
COCC(=O)N(Cc1cc(F)ccc1F)[C@@H]1CCN(C2CCN(C(=O)c3c(C)ccnc3C)CC2)C1 [Example 23] | 1.42 nM
CCOc1ccccc1C(=O)N1CCC(N2CC[C@@H](N(Cc3ccccc3)C(=O)C3CCC3)C2)CC1 [Example 40] | 120 nM
COCC(=O)N(Cc1ccccc1F)[C@@H]1CCN(C2(C)CCN(C(=O)c3ccc(F)cc3Cl)CC2)C1 [Example 66] | 28.5 nM
O=C(c1c(F)cccc1Cl)N1CCC(N2CC[C@@H](N(Cc3ccccc3)C(=O)C3CC3)C2)CC1 [Example 49] | 28.5 nM
COCCC(=O)N(Cc1ccccc1)[C@@H]1CCN(C2CCN(C(=O)c3c(C)cccc3C)CC2)C1 [Example 13] | 4.83 nM
Cc1ncnc(C)c1C(=O)N1CCC(C)(N2CC[C@@H](N(Cc3ccccc3)C(=O)C3CC(F)(F)C3)C2)CC1 [Example 67] | 44.3 nM
Cc1cc[n+]([O-])c(C)c1C(=O)N1CCC(C)(N2CC[C@@H](N(Cc3ccccc3)C(=O)C3CC3)C2)CC1 [Example 65] | 26.5 nM
Cc1ncnc(C)c1C(=O)N1CCC(N2CC[C@@H](N(Cc3ccccc3)C(=O)C3CC3)C2)CC1 [Example 35] | 9.9 nM
Cc1ccnc(C)c1C(=O)N1CCC(N2CC[C@@H](N(Cc3ccccc3)C(=O)C3CC(F)(F)C3)C2)CC1 [Example 22] | 1.21 nM
CCc1cnn(C)c1C(=O)N1CCC(N2CC[C@@H](N(Cc3ccccc3)C(=O)C3CC3)C2)CC1 [Example 43] | 59.8 nM
Cc1ccnc(C)c1C(=O)N1CCC(C)(N2CC[C@@H](N(Cc3ccccc3)C(=O)C3CC3)C2)CC1 [Example 62] | 0.34 nM
Cc1ccnc(C)c1C(=O)N1CCC(N2CC[C@@H](N(Cc3ccccc3F)C(=O)C(C)C)C2)CC1 [Example 27] | 8.8 nM
Cc1cccc(C)c1C(=O)N1CCC(N2CC[C@@H](N(Cc3ccccc3)C(=O)CC(F)(F)F)C2)CC1 [Example 6] | 0.34 nM
COCC(=O)N(Cc1ccccc1F)[C@@H]1CCN(C2(C)CCN(C(=O)c3c(C)ncnc3C)CC2)C1 [Example 64] | 16.6 nM

Same assay, conditions: HIV cell fusion assay; unit μm printed under the cell; read-out: IC50

SMILES | IC50
COc1ccc(C(=O)N2CCC(N3CC[C@@H](N(Cc4ccccc4)C(=O)CC4CC4)C3)CC2)cc1C [Example 57] | 6200 nM

Same assay, conditions: Human immunodeficiency virus 1, HeLaP4

SMILES | IC50
Cc1cccc(C)c1C(=O)N1CCC(N2CC[C@@H](N(Cc3ccccc3)S(C)(=O)=O)C2)CC1 [Example 58, N-benzyl-N-{(3R)-1-[1-(2,6-dimethylbenzoyl)piperidin-4-yl]pyrrolidin-3-yl}methanesulfonamide] | 92.5 nM
Cc1ccnc(C)c1C(=O)N1CCC(N2CC[C@@H](N(Cc3ccccc3)C(=O)C3CC3)C2)[C@H](C)C1 (stereo partly drawn) [Example 60, N-benzyl-N-((3R)-1-{1-[(2,4-dimethylpyridin-3-yl)carbonyl]-3-methylpiperidin-4-yl}pyrrolidin-3-yl)cyclopropanecarboxamide] | 4.46 nM
Cc1ccnc(C)c1C(=O)N1[C@@H]2CC[C@H]1C[C@H](N1CC[C@@H](N(Cc3ccccc3)C(=O)C3CC3)C1)C2 [Example 70, N-benzyl-N-((3R)-1-[(3-exo)-8-[(2,4-dimethylpyridin-3-yl)carbonyl]-8-azabicyclo[3.2.1]oct-3-yl]pyrrolidin-3-yl)cyclopropanecarboxamide] | 2.65 nM
CCCNC(=O)N(Cc1ccccc1F)[C@@H]1CCN(C2CCN(C(=O)c3c(C)cccc3C)CC2)C1 [Example 59, N-[(3R)-1-[1-(2,6-dimethylbenzoyl)piperidin-4-yl]pyrrolidin-3-yl]-N-(2-fluorobenzyl)-N′-propylurea] | 0.02 nM
Cc1cccc(C)c1C(=O)N1CCC(C)(N2CC[C@@H](N(Cc3ccccc3)C(=O)C3CC3)C2)CC1 [Example 61, N-benzyl-N-{(3R)-1-[1-(2,6-dimethylbenzoyl)-4-methylpiperidin-4-yl]pyrrolidin-3-yl}cyclopropanecarboxamide] | 0.23 nM
Cc1cccc(C)c1C(=O)N1CCC(N2CC[C@@H](N(Cc3cccc(Cl)c3)C(=O)C3CC3)C2)CC1 [Example 1, N-(3-chlorobenzyl)-N-{(3R)-1-[1-(2,6-dimethylbenzoyl)piperidin-4-yl]pyrrolidin-3-yl}cyclopropanecarboxamide] | 0.14 nM
